Laboratory results: PubChem BioAssay (NCI)
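Dose response: 5 concentrations. Exposure: 48 h. Format: 96-well plates. Endpoint: linear interpolation; highest concentration if not reached. The concentration for full growth arrest is given as TGI.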

What was measured:
Assay in all cases: inhibition of tumour cell growth, NCI panel, 48 h
MDA-MB-435 = test system: MDA-MB-435
K-562 leukemia = test system: K-562 leukemia
HT29 colon = test system: HT29 colon
NCI-H23 lung = test system: NCI-H23 lung
SF-295 CNS = test system: SF-295 CNS
HS 578T breast = test system: HS 578T breast
SK-MEL-2 melanoma = test system: SK-MEL-2 melanoma
SNB-75 CNS = test system: SNB-75 CNS
UACC-62 melanoma = test system: UACC-62 melanoma
ACHN renal = test system: ACHN renal
NCI-H460 lung = test system: NCI-H460 lung
DU-145 prostate = test system: DU-145 prostate
786-0 renal = test system: 786-0 renal
MCF7 breast = test system: MCF7 breast
HCT-116 colon = test system: HCT-116 colon
SK-OV-3 ovarian = test system: SK-OV-3 ovarian
NCI-H522 lung = test system: NCI-H522 lung
A549 NSCLC = test system: A549 NSCLC
MALME-3M melanoma = test system: MALME-3M melanoma
EKVX NSCLC = test system: EKVX NSCLC
SK-MEL-5 melanoma = test system: SK-MEL-5 melanoma
RXF 393 renal = test system: RXF 393 renal
CCRF-CEM leukemia = test system: CCRF-CEM leukemia
UO-31 renal = test system: UO-31 renal
HCT-15 colon = test system: HCT-15 colon
OVCAR-4 ovarian = test system: OVCAR-4 ovarian
CAKI-1 renal = test system: CAKI-1 renal
BT-549 breast = test system: BT-549 breast
MOLT-4 leukemia = test system: MOLT-4 leukemia
M14 melanoma = test system: M14 melanoma
PC-3 prostate = test system: PC-3 prostate
IGROV1 ovarian = test system: IGROV1 ovarian
MDA-N = test system: MDA-N
SK-MEL-28 melanoma = test system: SK-MEL-28 melanoma
HOP-92 NSCLC = test system: HOP-92 NSCLC
UACC-257 melanoma = test system: UACC-257 melanoma
KM12 colon = test system: KM12 colon
HOP-62 NSCLC = test system: HOP-62 NSCLC
HCC-2998 colon = test system: HCC-2998 colon
RPMI-8226 leukemia = test system: RPMI-8226 leukemia
T-47D breast = test system: T-47D breast
OVCAR-8 ovarian = test system: OVCAR-8 ovarian
MDA-MB-231 breast = test system: MDA-MB-231 breast
COLO 205 colon = test system: COLO 205 colon
SW-620 colon = test system: SW-620 colon
OVCAR-3 ovarian = test system: OVCAR-3 ovarian
A498 renal = test system: A498 renal
NCI/ADR-RES ovarian = test system: NCI/ADR-RES ovarian
OVCAR-5 ovarian = test system: OVCAR-5 ovarian
U251 CNS = test system: U251 CNS
SNB-19 CNS = test system: SNB-19 CNS
TK-10 renal = test system: TK-10 renal
LOX IMVI melanoma = test system: LOX IMVI melanoma
SF-539 CNS = test system: SF-539 CNS
SF-268 CNS = test system: SF-268 CNS
NCI-H226 lung = test system: NCI-H226 lung
HL-60(TB) leukemia = test system: HL-60(TB) leukemia
SN12C renal = test system: SN12C renal

Compound: COC1OC(Cn2c(C)nc(Br)c2Br)C(O)C(O)C1O (configuration not stated)
- TGI (MDA-MB-435): > 100 µM
- TGI (K-562 leukemia): > 100 µM
- TGI (HT29 colon): > 100 µM
- TGI (NCI-H23 lung): > 100 µM
- TGI (SF-295 CNS): > 100 µM
- TGI (HS 578T breast): > 100 µM
- TGI (SK-MEL-2 melanoma): > 100 µM
- TGI (SNB-75 CNS): > 100 µM
- TGI (UACC-62 melanoma): > 100 µM
- TGI (ACHN renal): > 100 µM
- TGI (NCI-H460 lung): > 100 µM
- TGI (DU-145 prostate): > 100 µM
- TGI (786-0 renal): > 100 µM
- TGI (MCF7 breast): > 100 µM
- TGI (HCT-116 colon): > 100 µM
- TGI (SK-OV-3 ovarian): > 100 µM
- TGI (NCI-H522 lung): > 100 µM
- TGI (A549 NSCLC): > 100 µM
- TGI (MALME-3M melanoma): > 100 µM
- TGI (EKVX NSCLC): > 100 µM
- TGI (SK-MEL-5 melanoma): > 100 µM
- TGI (RXF 393 renal): > 100 µM
- TGI (CCRF-CEM leukemia): > 100 µM
- TGI (UO-31 renal): > 100 µM
- TGI (HCT-15 colon): > 100 µM
- TGI (OVCAR-4 ovarian): > 100 µM
- TGI (CAKI-1 renal): > 100 µM
- TGI (BT-549 breast): > 100 µM
- TGI (MOLT-4 leukemia): > 100 µM
- TGI (M14 melanoma): > 100 µM
- TGI (PC-3 prostate): > 100 µM
- TGI (IGROV1 ovarian): > 100 µM
- TGI (MDA-N): > 100 µM
- TGI (SK-MEL-28 melanoma): > 100 µM
- TGI (HOP-92 NSCLC): > 100 µM
- TGI (UACC-257 melanoma): > 100 µM
- TGI (KM12 colon): > 100 µM
- TGI (HOP-62 NSCLC): > 100 µM
- TGI (HCC-2998 colon): > 100 µM
- TGI (RPMI-8226 leukemia): > 100 µM
- TGI (T-47D breast): > 100 µM
- TGI (OVCAR-8 ovarian): > 100 µM
- TGI (MDA-MB-231 breast): > 100 µM
- TGI (COLO 205 colon): > 100 µM
- TGI (SW-620 colon): > 100 µM
- TGI (OVCAR-3 ovarian): > 100 µM
- TGI (A498 renal): > 100 µM
- TGI (NCI/ADR-RES ovarian): > 100 µM
- TGI (OVCAR-5 ovarian): > 100 µM
- TGI (U251 CNS): > 100 µM
- TGI (SNB-19 CNS): > 100 µM

Compound: COC(=O)[C@]1(C)CCC[C@]2(C)[C@H]3CC[C@]4(C(C)C)OO[C@@H](O4)[C@]34O[C@@H]4C[C@H]21
- TGI (MDA-MB-435): 3.89 µM
- TGI (K-562 leukemia): > 100 µM
- TGI (HT29 colon): 3.91 µM
- TGI (NCI-H23 lung): 23.5 µM
- TGI (SF-295 CNS): 8.77 µM
- TGI (HS 578T breast): 8.65 µM
- TGI (SK-MEL-2 melanoma): 29.1 µM
- TGI (SNB-75 CNS): 11.2 µM
- TGI (UACC-62 melanoma): 17.7 µM
- TGI (ACHN renal): 1.75 µM
- TGI (NCI-H460 lung): 3.88 µM
- TGI (DU-145 prostate): 3.07 µM
- TGI (786-0 renal): 3.49 µM
- TGI (TK-10 renal): 12.2 µM
- TGI (MCF7 breast): 5.75 µM
- TGI (HCT-116 colon): 3.03 µM
- TGI (SK-OV-3 ovarian): 4.83 µM
- TGI (NCI-H522 lung): 3.43 µM
- TGI (LOX IMVI melanoma): 1.04 µM
- TGI (SF-539 CNS): > 55.6 µM
- TGI (A549 NSCLC): 3.56 µM
- TGI (SF-268 CNS): 5.31 µM
- TGI (MALME-3M melanoma): 20.5 µM
- TGI (EKVX NSCLC): 3.71 µM
- TGI (SK-MEL-5 melanoma): 8.02 µM
- TGI (RXF 393 renal): 11.6 µM
- TGI (CCRF-CEM leukemia): > 100 µM
- TGI (UO-31 renal): 1.46 µM
- TGI (NCI-H226 lung): 13.5 µM
- TGI (HCT-15 colon): 7.06 µM
- TGI (HL-60(TB) leukemia): 4.88 µM
- TGI (OVCAR-4 ovarian): 3.73 µM
- TGI (CAKI-1 renal): 0.927 µM
- TGI (SN12C renal): 12 µM
- TGI (BT-549 breast): 10.9 µM
- TGI (M14 melanoma): 17.3 µM
- TGI (PC-3 prostate): 3.11 µM
- TGI (IGROV1 ovarian): 0.336 µM
- TGI (MDA-N): 6.13 µM
- TGI (SK-MEL-28 melanoma): > 63.9 µM
- TGI (HOP-92 NSCLC): 4.14 µM
- TGI (UACC-257 melanoma): 32.1 µM
- TGI (KM12 colon): 11.2 µM
- TGI (HOP-62 NSCLC): 7 µM
- TGI (HCC-2998 colon): 4.88 µM
- TGI (RPMI-8226 leukemia): > 100 µM
- TGI (T-47D breast): 3.84 µM
- TGI (OVCAR-8 ovarian): 26.5 µM
- TGI (MDA-MB-231 breast): 15 µM
- TGI (COLO 205 colon): 5.2 µM
- TGI (SW-620 colon): > 33.7 µM
- TGI (OVCAR-3 ovarian): 3.65 µM
- TGI (NCI/ADR-RES ovarian): 30.9 µM
- TGI (OVCAR-5 ovarian): 16.3 µM
- TGI (U251 CNS): 13.5 µM
- TGI (SNB-19 CNS): 24.5 µM

Compound: CCO/C(O)=C(/C(=N)N1CCOCC1)C(=O)Nc1cccc(Cl)c1
- TGI (MDA-MB-435): > 100 µM
- TGI (K-562 leukemia): > 100 µM
- TGI (HT29 colon): > 100 µM
- TGI (NCI-H23 lung): > 100 µM
- TGI (SF-295 CNS): > 100 µM
- TGI (HS 578T breast): > 100 µM
- TGI (SK-MEL-2 melanoma): > 100 µM
- TGI (SNB-75 CNS): > 100 µM
- TGI (UACC-62 melanoma): > 100 µM
- TGI (ACHN renal): > 100 µM
- TGI (NCI-H460 lung): > 100 µM
- TGI (DU-145 prostate): > 100 µM
- TGI (786-0 renal): > 100 µM
- TGI (TK-10 renal): > 100 µM
- TGI (MCF7 breast): > 100 µM
- TGI (HCT-116 colon): > 100 µM
- TGI (SK-OV-3 ovarian): > 100 µM
- TGI (NCI-H522 lung): > 100 µM
- TGI (LOX IMVI melanoma): > 100 µM
- TGI (SF-539 CNS): > 100 µM
- TGI (A549 NSCLC): > 100 µM
- TGI (SF-268 CNS): > 100 µM
- TGI (MALME-3M melanoma): > 100 µM
- TGI (EKVX NSCLC): > 100 µM
- TGI (RXF 393 renal): > 100 µM
- TGI (CCRF-CEM leukemia): > 100 µM
- TGI (NCI-H226 lung): > 100 µM
- TGI (HCT-15 colon): > 100 µM
- TGI (HL-60(TB) leukemia): > 100 µM
- TGI (OVCAR-4 ovarian): > 100 µM
- TGI (CAKI-1 renal): > 100 µM
- TGI (SN12C renal): > 100 µM
- TGI (BT-549 breast): > 100 µM
- TGI (MOLT-4 leukemia): > 100 µM
- TGI (M14 melanoma): > 100 µM
- TGI (PC-3 prostate): > 100 µM
- TGI (IGROV1 ovarian): > 100 µM
- TGI (MDA-N): > 100 µM
- TGI (SK-MEL-28 melanoma): > 100 µM
- TGI (UACC-257 melanoma): > 100 µM
- TGI (KM12 colon): > 100 µM
- TGI (HOP-62 NSCLC): > 100 µM
- TGI (HCC-2998 colon): > 100 µM
- TGI (RPMI-8226 leukemia): > 100 µM
- TGI (T-47D breast): > 100 µM
- TGI (OVCAR-8 ovarian): > 100 µM
- TGI (MDA-MB-231 breast): > 100 µM
- TGI (COLO 205 colon): > 100 µM
- TGI (SW-620 colon): > 100 µM
- TGI (OVCAR-3 ovarian): > 100 µM
- TGI (A498 renal): > 100 µM
- TGI (NCI/ADR-RES ovarian): > 100 µM
- TGI (OVCAR-5 ovarian): > 100 µM
- TGI (U251 CNS): > 100 µM
- TGI (SNB-19 CNS): > 100 µM
